Our source for the melting point values is a melting point compilation (Tetko et al.; mined from patent text by program, amines drawn as free bases though some values may be those of a salt).

Structures are written as SMILES. Non-standard residues stand in square brackets, D forms with d. Residues, ends and D or L forms follow the SMILES beside them. *: point of attachment. Tos = Cc1ccc(S(=O)(=O)*)cc1; OBn = c1ccc(CO*)cc1; Sar = CNCC(=O)O

As usually defined, the melting point is the temperature of the solid-liquid transition. The compound `COc1cccc2c1CN(Nc1ccncc1)CC2` returned a melting point of 170 to 171 °C.

As to `CCCN1CC(c2cccc(Br)c2)=C(c2ccc(S(N)(=O)=O)cc2)C1=O`, the melting point is 162 to 163 °C.

Compound `CC(=O)NC1CN(C)S(=O)(=O)c2sc(S(N)(=O)=O)cc21` (stereo not drawn) had a melting point of 252 to 253 °C.

Consider `N#CCc1cc(O)cc2cc(-c3ccc(O)cc3)oc12`, for which the melting point lay within 128 to 130 °C.

Turning to `CCOC(=O)CCc1oc(-n2ccnc2C)nc1-c1ccc(Cl)cc1`, the melting point was in the range of 70 to 71 °C.

In the case of `O=[N+]([O-])c1cnc(N2CCc3ccccc3CC2)c([N+](=O)[O-])c1`, the melting point was in the range of 137 to 140 °C.

As for `CC(=Cc1ccc(F)cc1F)C(=O)O`, the melting point fell in the range of 126 to 128 °C.

For `COCCc1nc2c(N)nc3ccccc3c2n1CCOCCN(C)S(C)(=O)=O`, the melting point lay within 145 to 146 °C.

Take `Nc1ccc(-c2nc3ccccc3o2)cc1I`: the melting point was 188 to 191 °C.

Regarding `COc1cccc(C(=O)n2c3c(c4ccccc42)CC(C(=O)O)CC3)c1` (stereo not drawn), the melting point was 197 to 200 °C.

The compound `COc1ccc2c(c1)C(C)(N)C(=O)N2c1ccc(F)cc1` (stereo not drawn) had a melting point of 163 to 164 °C.

Take `Cc1c(-c2cccnc2)ccc2c(=O)c(C(=O)O)cn(C3CC3)c12`: the melting point came out at 247 °C.

The compound `CCC(=O)Nc1cc(OC)cc2c1CC(C)O2` (stereo not drawn) gave a melting point of 101 °C.

As for `CCOC(=O)CCCCCCCCOC1OC(CO)C(O)C(O)C1NC(C)=O` (stereo not drawn), the melting point is 112 °C.

Take `O=C(O)CCSSc1ccc([N+](=O)[O-])cc1`: the melting point is 98 to 100 °C.

On to `N#CCC(CC#N)c1ccccc1Br`, for which the melting point lay in the range of 94 to 96 °C.

`O=C(NCCCc1ccncc1)N(C1CCCCC1)C1CCCCC1` came in with a melting point of 143 to 146 °C.

On to `CCOC(=O)C1COc2c(OC)ccc([N+](=O)[O-])c2C1` (stereo not drawn), for which the melting point lay in the range of 66 to 68 °C.

`CC(C)C(=O)NC(c1ccc(C=O)cc1)C(F)(F)F` (stereo not drawn) yielded a melting point of 132 to 133 °C.

Take `CC12CCC3C(CC=C4C=C(N5CCCC5)CCC43C)C1CCC2=O` (stereo not drawn): the melting point fell in the range of 217 to 220 °C.

In turn, `COc1ccc(C(=O)c2cc(C(C)(C)C)c(O)c(C(C)(C)C)c2)cc1` showed a melting point of 141 to 142 °C.

On to `Cc1cc(-c2cccc(-c3ccc(C4(O)C5CCC4CN(Cc4ccccc4)C5)cc3)n2)c(C)[nH]1` (stereo not drawn), for which the melting point fell in the range of 58 to 68 °C.

In the case of `CCn1nc(-c2ccc(F)cc2)c(C(C)=O)c(Nc2cccc3ncccc23)c1=O`, the melting point turned out to be 218 °C.

Compound `CCN(CC)CC(O)CNC(=O)c1c(OC)c2cc(C)ccc2n1-c1ccccc1` (stereo not drawn) returned a melting point of 126 to 128 °C.

For `COc1ccc(NC(=N)N2CCCCC2)c(-c2ccccc2)c1`, the melting point was 155 °C.

For `CC(C)(C)OC(=O)N[C@H](Cc1ccccc1)C(=O)N1CCC[C@H]1C(=O)NCc1ccc(C#N)nc1`, the melting point lay in the range of 167 to 170 °C.

As for `CC(Cc1ccc(Oc2cc(N3CCN(Cc4ccccn4)CC3)nc(N)n2)cc1)(Oc1ccccc1)C(=O)O` (stereo not drawn), the melting point lay within 138 to 139 °C.

In the case of `Cc1nc(C(F)(F)F)ccc1/C=C/C(=O)Nc1ccc2[nH]ccc2c1`, the melting point came out at 231 °C.

Consider `Cc1c(O)cccc1OCc1ccccc1`, for which the melting point lay in the range of 58 to 59 °C.

In turn, `CS(=O)(=O)c1ccc(-n2cnc(Cl)c2-c2ccc(Cl)nc2)cc1` returned a melting point of 223 °C.

Compound `Cc1cc(N2CCN(CCc3ccccc3)C2=O)sc1C(=O)NCc1cccnc1` showed a melting point of 95 to 97 °C.

Compound `Oc1ccc(CCNc2ncnc3scnc23)c(F)c1` had a melting point of 193 °C.

On to `COc1ccc(C2c3[nH]c4ccccc4c3CCN2C(=O)C=Cc2cccc([N+](=O)[O-])c2)cc1` (stereo not drawn), for which the melting point is 227 °C.

Compound `CCN(CC)C(=O)O[C@@H]1[C@@H](c2ccccc2)Nc2c(ccn3c(C)c(C)nc23)[C@H]1OC` yielded a melting point of 97 to 98 °C.

`CCC(=O)c1cc(-c2cccc(O)c2)cs1` had a melting point of 112 °C.

On to `Cc1cccc(NC(=O)NC2N=C(c3ccccc3F)c3ccccc3N(Cc3nccc4c3CCCC4)C2=O)c1` (racemic), for which the melting point lay within 207 to 210 °C.

Compound `O=C(Nc1ccc2oc3c(c2c1)CCCC3)c1ccccc1` had a melting point of 178 to 180 °C.

Consider `O=C(O)COc1cccc(-n2nc(-c3ccc(F)cc3)c3cccnc32)c1`, for which the melting point was in the range of 225 to 226 °C.

For `O=c1[nH]c2ccccc2n1CCN1CCc2c([nH]c3ccccc23)C1`, the melting point is 214 to 216 °C.

With `CC1CCc2ncc([N+](=O)[O-])cc2C1` (stereo not drawn), the melting point was 50 to 52 °C.

Consider `CCOC(=O)CNC(=O)CCCCCNC(=O)c1ccc(S(C)(=O)=O)cc1`, for which the melting point fell in the range of 124 to 126 °C.

For `CC(C)(NS(=O)(=O)c1ccc(Oc2ccc(F)cc2)cc1)C(=O)NO`, the melting point was 133 to 134 °C.

As for `Cc1cc(-n2cncn2)c2cccc(OCc3c(Cl)ccc(S(=O)(=O)N4CCC[C@H]4C(=O)O)c3Cl)c2n1`, the melting point was determined as 146 °C.

Take `COCCc1cc(N2CCN(C)CC2)n2nc(SC)c(S(=O)(=O)c3ccccc3)c2n1`: the melting point is 160 to 161 °C.

For the compound `CC(C)(C)OC(=O)N1CCN(S(=O)(=O)c2ccc(Br)s2)CC1`, the melting point was determined as 127 °C.

As to `CC1(C)c2cccnc2C(=O)c2ccc(Cl)cc2S1(=O)=O`, the melting point is 189 to 191 °C.

In turn, `Cc1cccc(NC(=O)c2ccc3nc(NC4CCN(C)CC4)n(Cc4nc(C)ccc4O)c3c2)c1` displayed a melting point of 172 °C.

For `Cc1ccc(S(=O)(=O)N(C)CC(=O)N[C@@H](Cc2ccccc2)C(=O)OCc2ccccc2)cc1` (Tos-[Sar]-Phe-OBn), the melting point lay in the range of 80 to 82 °C.

In the case of `O=C1C=CC(O)(C(F)(F)F)C=C1`, the melting point lay within 84 to 86 °C.

Compound `COc1cc2c(cc1OC)N(c1ccc([N+](=O)[O-])cc1)CC2` gave a melting point of 176 to 179 °C.

On to `CNc1c(S(=O)(=O)C(F)(F)F)c(C)nn1-c1c(Cl)cc(C(F)(F)F)cc1Cl`, for which the melting point was in the range of 139 to 140 °C.

`Cc1nc2cc3c(cc2s1)C1(CO3)C(=O)N(Cc2ncc(Cl)n2C)c2ccccc21` (stereo not drawn) returned a melting point of 177 to 178 °C.

`Cc1ccc2oc3ccc(C)cc3c2c1` registered a melting point of 62 to 64 °C.

`COc1ccccc1NC(=O)Nc1nc(Nc2ccccc2-c2ccccc2)nc(N(CCC(=O)O)Cc2cc(C(F)(F)F)cc(C(F)(F)F)c2)n1` showed a melting point of 132 to 135 °C.

The compound `Cc1cc(OCC(F)(F)F)c([N+](=O)[O-])c(OCC(F)(F)F)n1` yielded a melting point of 72.8 to 73.2 °C.

Turning to `COc1cc(C=O)cc2c(N(C)C)cc(C)nc12`, the melting point is 127 to 129 °C.

`Nc1ccc2c(c1)NC(=O)c1cscc1N2` yielded a melting point of 212 to 215 °C.

For `COC(=O)c1ccc(NC(=O)CCc2c(C)noc2-c2ccccc2)cc1`, the melting point was in the range of 140 to 141 °C.

`CCCCc1ncc(C(=O)OCC)c(N(C)Cc2ccc(-c3ccccc3-c3nnn[nH]3)cc2)n1` returned a melting point of 159 to 161 °C.

Take `COc1cccc(C2(CC(=O)N(C)C)C=CCCC2)c1` (stereo not drawn): the melting point lay in the range of 161 to 162 °C.

In the case of `C=CCNC1=NN=C(c2ccc(Cl)cc2Cl)CS1`, the melting point lay in the range of 188 to 189 °C.

For the compound `NC(=O)c1c(-c2ccc(Cl)cc2)csc1N`, the melting point was in the range of 150 to 151 °C.

For `CCOC(=O)/C=C/c1cn(Cc2ccc(Oc3ccccc3)cc2)nc1OCc1nc(-c2ccccc2)oc1C`, the melting point is 93 to 94 °C.
